Measured values taken from the supplement of paper PMC10307832.

Columns and labels:
Assay in all cases: relative viability (nuclei count vs DMSO), 5 days (fraction); higher = more cells survive
[1] = compound: C1=CC(=CC=C1NC(=S)NNC2=C(C=C(C=C2[N+](=O)[O-])C(F)(F)F)[N+](=O)[O-])F [Kobe2602]
Procedure, shortened: (§1)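 Viability is treated-well nuclei as a fraction of vehicle-well nuclei, reported as the median across plates. Before counting, lung cancer cell lines were kept overnight at 37 °C in 1536-well plates, pinned with five √10-spaced library-drug doses on vehicle-anchored plates, and left 5 days without medium change, then fixed, permeabilised and Hoechst-stained in one step, imaged at 4× and counted by MetaXpress. A plate passed only if control CV was below 25% and at least one doubling occurred.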

[2] = compound: COc1cc2nccc(Oc3ccc(NC(=O)C4(C(=O)Nc5ccc(F)cc5)CC4)cc3)c2cc1OC [Cabozantinib]
Procedure, shortened: as §1

[3] = compound: O[C@@H](COc1cccc2ncccc12)CN1CCN([C@@H]2c3ccccc3[C@@H]3[C@H](c4ccccc42)C3(F)F)CC1 [Zosuquidar]
Procedure, shortened: as §1

Cell Line	relative viability ([1]; 0.2 µM)	relative viability ([1]; 0.6325 µM)	relative viability ([1]; 2 µM)	relative viability ([1]; 6.325 µM)	relative viability ([1]; 20 µM)	relative viability ([2]; 0.02 µM)	relative viability ([2]; 0.06325 µM)	relative viability ([2]; 0.2 µM)	relative viability ([2]; 0.6325 µM)	relative viability ([2]; 2 µM)	relative viability ([3]; 0.01 µM)	relative viability ([3]; 0.03162 µM)	relative viability ([3]; 0.1 µM)	relative viability ([3]; 0.3162 µM)	relative viability ([3]; 1 µM)
NCI-H1437	0.958	0.978	1	0.983	0.96	1.05	1.08	0.946	0.998	0.975	0.976	0.979	0.91	1.09	0.942
NCI-H1563	0.899	1	0.96	0.971	0.981	0.99	0.977	1.04	0.915	1.01	0.936	0.929	0.974	1.13	0.865
NCI-H1623	1.04	1	1.03	0.9	0.933	0.959	1.13	0.731	1	0.972	0.98	0.898	0.879	1	1.02
NCI-H1648	1.22	0.902	0.701	0.824	0.763	0.868	0.991	0.629	1.07	0.802	0.969	0.947	0.676	0.673	0.852
NCI-H1650	0.891	1.02	0.99	0.913	0.846	0.925	1.13	0.805	1.02	0.89	0.885	0.929	0.876	1.06	0.912
NCI-H1651	0.982	1.01	0.981	0.967	1.01	0.95	1.07	0.92	0.981	0.968	0.985	1.02	0.911	1.02	0.983
NCI-H1666	1.06	1.01	0.963	1.03	1	1.01	1.08	1.02	1.03	1.06	0.997	1.08	0.962	1.08	0.945
NCI-H1703	0.831	1.08	0.83	0.898	0.727	0.57	0.662	0.325	0.262	0.233	1.07	1.14	0.993	1.12	1.01
NCI-H1734	1.05	1.05	0.973	0.987	1.1	0.92	1.01	1.11	1.02	0.938	1	1	0.928	1.08	0.938
NCI-H1755	0.962	0.971	0.993	0.985	0.994	0.994	1.04	0.977	0.923	0.857	0.995	1.01	0.94	1.05	1.01
NCI-H1792	0.99	1.02	0.848	0.978	1.07	–	1.21	0.915	0.894	0.898	0.833	0.94	0.729	0.954	0.834
NCI-H1793	0.862	0.889	0.853	0.86	1.04	0.846	0.992	0.59	0.832	0.776	0.902	0.754	–	1.15	0.892
NCI-H1915	0.998	1.08	0.987	0.985	1	0.994	1.03	1.02	0.996	0.994	0.986	1.04	0.926	1.04	1.01
NCI-H1944	1	1.07	0.899	0.992	0.987	0.826	1.01	0.961	1.01	0.916	0.942	0.88	0.847	1.08	0.909
NCI-H1975	0.995	0.978	0.852	0.836	0.905	1.03	1.1	0.961	0.873	0.855	0.934	0.824	0.937	1.06	0.959
NCI-H1993	0.877	0.993	0.876	0.792	0.87	0.681	0.787	0.584	0.734	0.788	0.925	0.879	0.685	1.06	0.826
NCI-H2009	1.02	1.08	0.966	1.04	0.99	1.08	1.06	1.08	1.07	1.15	1.02	0.945	0.929	1.06	0.971

Cell Line	relative viability ([1]; 0.2 µM)	relative viability ([1]; 0.6325 µM)	relative viability ([1]; 2 µM)	relative viability ([1]; 6.325 µM)	relative viability ([1]; 20 µM)	relative viability ([2]; 0.02 µM)	relative viability ([2]; 0.06325 µM)	relative viability ([2]; 0.2 µM)	relative viability ([2]; 0.6325 µM)	relative viability ([2]; 2 µM)	relative viability ([3]; 0.01 µM)	relative viability ([3]; 0.03162 µM)	relative viability ([3]; 0.1 µM)	relative viability ([3]; 0.3162 µM)	relative viability ([3]; 1 µM)
NCI-H2023	0.941	1.02	0.984	0.924	0.663	0.93	0.998	0.803	0.78	0.593	0.949	1.03	0.894	1.1	1.05
NCI-H2085	1.02	0.994	0.959	0.991	0.96	1.07	1.09	0.942	1.05	1.01	0.977	0.955	0.797	1	0.959
NCI-H2087	1.02	1.08	0.995	1.08	1.13	1.09	1.16	1.03	0.922	1.02	1.06	0.971	0.907	1.19	1.07
NCI-H2126	1.01	1.02	0.975	0.971	0.961	0.747	1.05	0.991	0.99	1.11	0.96	0.996	0.741	1.03	1.03
NCI-H2170	1.03	0.958	0.974	0.992	0.871	0.991	1	0.864	1.02	1.04	0.989	1	0.932	0.971	0.954
NCI-H2228	1.02	1.11	1.01	0.944	1.11	1.05	1.11	0.938	0.879	0.871	0.901	0.979	1.02	0.952	1.03
NCI-H2342	1.03	1.06	0.92	0.946	1.12	0.909	1.02	0.866	0.952	0.888	0.876	0.964	0.758	1.11	1
NCI-H2347	1.04	1.02	1.01	1.06	1.07	1.15	1.14	1.06	0.886	0.961	1	1.05	0.854	1.11	0.991
NCI-H2405	1.04	1.09	0.964	1.09	1.14	0.807	1.11	1.09	1.01	1.08	1.1	0.942	0.981	1.03	0.93
NCI-H3122	1.01	0.971	1.01	0.985	1.04	0.995	1.05	1.03	0.983	0.998	0.984	0.952	0.919	1.07	0.987
PC-3 [JPC-3]	1.07	1.09	1.01	1.01	0.954	1.03	1.21	–	1.03	1.09	1.06	0.992	0.883	0.972	1.01
PC-14	0.993	1.05	0.989	1.04	0.952	1.01	1.14	–	0.996	0.99	0.988	0.981	0.953	1.11	0.954
RERF-LC-KJ	0.981	0.943	0.959	0.9	0.906	1.02	1.1	0.935	0.996	0.994	0.943	1.03	1.03	1.04	0.971
SK-LU-1	1	1.13	0.937	1.04	1.1	0.97	1.24	1.08	0.926	0.942	1.1	1.02	0.962	1.11	1.07
SK-MES-1	0.96	1.05	0.964	0.97	0.855	0.981	1.14	0.986	1.03	0.953	0.998	0.993	0.912	1.02	1.04
SW 900	0.987	0.861	0.83	0.906	0.975	0.807	1.14	0.815	0.959	0.903	0.904	0.889	0.705	1.22	0.759
SW 1573	0.933	1.02	0.915	0.883	0.907	0.984	1.05	1.01	0.979	0.819	0.925	1	1.03	1.07	0.934
